Source: US20190308987A1, “DUAL MODULATORS OF BOTH MU AND KAPPA OPIOID RECEPTORS” (priority 2016, published 2019)
Values joined by “and” are separate entries in the source; they are usually repeats but may differ in a detail not shown here. Equal entries are not always repeated.

What was measured:
DOR = target: T1, DOR (Homo sapiens, UniProt P41143); assay: [35S]GTPγS-binding assay, DOR-expressing CHO cell membranes; type: biochemical
T1 construct: expressed in transfected cells; host or cells: CHO cells (membranes)
Method: [^35S]-GTPγS-Binding Assays using DOR- or KOR-Expressing CHO Cell Lines: Cell membranes (10 μg protein) were incubated with 10 μM GDP and 0.1 nM [^35S]-GTPγS in assay buffer in the presence and absence of varying concentrations of BNAP, 3 μM SNC80 (standard full agonist at DOR) or 3 μM U50,488H (standard full agonist at KOR) for 90 min at 30° C. Nonspecific binding was determined with 10 μM unlabeled GTPγS. The reaction was terminated and bound radioactivity determined as described above and previously.^9
(§1) All samples were assayed in triplicate and repeated at least twice for a total of 3 independent determinations. Results were reported as mean values±SEM. Concentration-effect curves were fit by nonlinear regression to a one-site binding model, using GraphPad Prism software, to determine EC50 and Emax values. IC50 values were obtained from Hill plots and analyzed by linear regression using Microsoft Excel software. Binding Ki values were determined from IC50 values using the Cheng-Prusoff equation: Ki=IC50/l+([L]/KD), where [L] is the concentration of […] and KD is the KD of the radioligand.

[1] = target: T2, delta opioid receptor (DOR) (Homo sapiens, UniProt P41143); assay: Competitive radioligand binding, DOR ([3H]NTI); conditions: read-out: Ki (nM) ± SEM
T2 construct: expressed in transfected cells; host or cells: CHO cells (membranes)
Method: The details of the Radioligand Binding and Functional Studies that were used were described previously.^19 Chinese hamster ovarian (CHO) cell lines were used as monoclonal opioid receptor expressing cells. The μ, δ, and κ opioid receptors were labeled with [^3H]naloxone, ^3H-naltrindole ([^3H]NTI) and ^3H-nor-Binaltorphimine ([^3H]norBNI). The opioid receptor expressing cell membranes were incubated with the radioligands at different concentrations of the drug under investigation at 30° C. for 1 h. With the absence and presence of 10 μM naltrexone, specific binding was got as the difference in binding obtained. The specific binding of the drugs to the radioligand was calculated from data using linear regression analysis of Hill plots.
as §1

[2] = system: mouse distal colon circular muscle; assay: Colon circular muscle isometric tension recordings, distal colon
Method: Mice were euthanized by cervical dislocation. The colon was dissected, flushed of its contents, and trimmed of mesentery. […] The tissues, 0.5 cm in length, were suspended vertically along the axis of the circular muscle with a metal triangle tied to a hook under 1 g of passive tension in 15 mL siliconized organ baths.
Data are presented as the mean±S.E.M, values of P≤0.05 were considered significant.

morphine antinociception = assay: Warm water tail immersion (tail flick) test; type: in vivo, Swiss Webster mice
Method: Male Swiss Webster mice (Harlan Laboratories, Indianapolis, Ind.) weighing 25-30 g were housed 5 to a cage in animal care quarters and maintained at […] on a 12 h light-dark cycle. Food and water were available ad libitum. The mice were brought to a test room (22±2° C., 12 h light-dark cycle), marked for identification and allowed 18 h to recover from transport and handling. Protocols and procedures were approved by the Institutional Animal Care and Use Committee (IACUC) at Virginia Commonwealth University Medical Center and comply with the recommendations of the IASP (International Association for the Study of Pain).
The warm water tail-immersion test was performed according to previously described methods using a water bath with the temperature maintained at 56±0.1° C.^20 Briefly, before giving the mice injections, a baseline (control) latency was determined. Only mice with a control reaction time of 2 to 4 s were used. The average baseline latency for these experiments was 3.0±0.1 s. The test latency after drug treatment was assessed at the appropriate time, and a 10 s maximal cutoff time was imposed to prevent tissue damage. Antinociception was quantified according to established procedures as the percentage of maximum possible effect (% MPE), which was calculated as follows: % MPE=[(test latency−control latency)/(10−control latency)]×100.^21 Percentage MPE was calculated for each mouse, using at least six mice per group.
Intracerebroventricular (ICV) injections were performed as described previously.^22 Mice were anesthetized with 2.5% isoflurane and a horizontal incision was made in the scalp. A needle was inserted to a depth of 3 mm into the lateral ventrical (2 mm rostral and 2 mm lateral at a 45° angle from the bregma). At intervals, 5 μL injections of drug or vehicle were made using this guide insertion to the same depth using a needle with a guard in nonanesthetized animals.^22, 23 Animals underwent the anesthetized surgery in the morning of the experiment and were then injected with drug at intervals indicated in the text without additional anesthesia. Immediately after testing, the animals were euthanized to minimize any type of distress, according to IACUC guidelines.

MOR = MOR (Mus musculus, UniProt P42866); assay: [35S]GTPγS-binding assay, low MOR-expressing CHO cell line membranes; type: biochemical; design: expressed in transfected cells; host or cells: CHO cells (membranes)
Method: [^35S]GTPγS-binding Assays using a Low MOR-expressing CHO Cell Line: Cell membranes were incubated with varying concentrations of BNAP or 3 μM DAMGO (standard full agonist at MOR) in the presence of 10 μM GDP and 0.1 nM [^35S]GTPγS in assay buffer (50 mM Tris-HCl, pH 7.4, 3 mM MgCl2, 0.2 mM EGTA and 100 mM NaCl) for 90 min at 30° C. Nonspecific binding was determined using 10 μM unlabeled GTPγS. The incubation was terminated by rapid vacuum filtration through GF/B glass fiber filters. Bound radioactivity was determined by liquid scintillation spectrophotometry. Additional methodological details of the assay were described previously.^9
as §1

T1 sequence (P41143 whole entry): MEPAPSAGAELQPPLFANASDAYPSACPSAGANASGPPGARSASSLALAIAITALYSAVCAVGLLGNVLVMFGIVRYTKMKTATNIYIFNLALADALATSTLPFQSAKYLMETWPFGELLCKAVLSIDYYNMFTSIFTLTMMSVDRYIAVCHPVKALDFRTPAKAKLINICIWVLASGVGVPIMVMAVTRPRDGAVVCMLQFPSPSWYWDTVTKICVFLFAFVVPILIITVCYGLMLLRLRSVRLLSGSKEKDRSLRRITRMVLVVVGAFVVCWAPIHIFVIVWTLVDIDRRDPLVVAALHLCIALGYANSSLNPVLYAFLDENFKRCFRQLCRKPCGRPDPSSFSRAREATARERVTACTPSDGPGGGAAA
Chain of MOR (P42866 whole entry): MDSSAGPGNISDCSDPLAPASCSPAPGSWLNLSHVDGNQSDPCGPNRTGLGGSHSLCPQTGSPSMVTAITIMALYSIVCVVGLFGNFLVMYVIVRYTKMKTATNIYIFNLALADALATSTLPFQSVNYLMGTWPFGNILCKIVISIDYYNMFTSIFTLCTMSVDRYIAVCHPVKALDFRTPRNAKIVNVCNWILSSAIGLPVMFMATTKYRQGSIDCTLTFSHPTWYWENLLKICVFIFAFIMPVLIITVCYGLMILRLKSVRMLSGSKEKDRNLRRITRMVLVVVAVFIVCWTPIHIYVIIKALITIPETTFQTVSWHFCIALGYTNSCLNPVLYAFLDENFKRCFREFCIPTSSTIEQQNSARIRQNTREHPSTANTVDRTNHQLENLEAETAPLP
T2 sequence (P41143 whole entry): as the sequence (P41143 whole entry) above

O=C(N[C@@H]1CC[C@@]2(O)[C@H]3Cc4ccc(O)c5c4[C@@]2(CCN3CC2CC2)C1O5)c1cc[n+](Cc2ccccc2)cc1 (stereo partly shown) [BNAP]
EC50 (DOR; 35S-GTP[γS]): 108 ± 69 nM | % max of agonist (DOR; Emax relative to full agonist SNC80): 9.2±2.2% | Ki [1]: 722 ± 65 nM | inhibition of morphine-induced contractions ([2]; 1 nM antagonist, distal colon): neither NAP nor BNAP showed significant inhibition of morphine-induced contractions | antagonism of morphine effects ([2]; 10 nM antagonist, distal colon): neither NAP nor BNAP showed significant antagonism of morphine effects | morphine pD2 in presence of antagonist ([2]; 100 nM antagonist, distal colon (naive 6.0)): 5.2 | contractions induced by compound alone ([2]; up to 30 μM, distal colon preparation): Neither BNAP nor NAP alone at concentrations up to 30 μM induced contractions | antinociception of compound alone (morphine antinociception; 1.0 μg/5 μL ICV, compared to morphine alone): did not produce significant antinociception | antagonism of morphine antinociception (morphine antinociception; 10 mg/kg s.c., any morphine dose tested): did not significantly antagonize morphine antinociception | antinociceptive effect of compound alone (morphine antinociception; 10 mg/kg s.c., warm water tail flick, mice): did not produce significant antinociceptive effects | dose giving complete reversal of morphine antinociception (morphine antinociception; ICV, dose dependent reversal): 0.3 μg/5 μL | EC50 (MOR; EC50 (nM), 35S-GTP[γS]): 4.84 nM and 4.8 nM | % max of agonist (MOR; Emax relative to full agonist DAMGO): 14.6±0.9%
